PMC3138873 (Biochemical pharmacology, 2011)
Like-named read-outs stand apart in the source and are kept apart here.

How the values were obtained:
AC5 [1] = target: T1, AC5 (Canis lupus familiaris, UniProt P30803); test: AC activity assay in Sf9 membranes expressing recombinant AC5; format: biochemical, mammalian; details: for Potency difference AC5 versus AC2: comparison of Ki at AC5 versus AC2
VC1:IIC2 [2] = target: T2, VC1:IIC2 (UniProt P26769+P30803); details: cited from earlier work
AC1 [3] = target: T3, AC1 (Bos taurus, UniProt P19754); test: AC activity assay in Sf9 membranes expressing recombinant AC1; format: biochemical, mammalian
AC2 [4] = target: T4, AC2 (Rattus norvegicus, UniProt P26769); test: AC activity assay in Sf9 membranes expressing recombinant AC2; format: biochemical, mammalian
VC1:IIC2 [5] = target: T2, VC1:IIC2; test: Inhibition of the catalytic activity of purified VC1:IIC2; format: biochemical, mammalian
AC1 [6] = target: T3, AC1; details: read-out: AC1 Ki; Sf9 membranes, 5 mM MnCl2, 100 μM FS; mean ± SD; cited from earlier work
ACs 1, 2 and 5 = details: read-out: Ki for ACs 1, 2 and 5; TNP-nucleotides; cited from earlier work
AC5 [7] = target: T1, AC5; details: read-out: AC5 Ki; Sf9 membranes, 5 mM MnCl2, 100 μM FS; mean ± SD; cited from earlier work
AC2 [8] = target: T4, AC2; details: read-out: AC2 Ki; Sf9 membranes, 5 mM MnCl2, 100 μM FS; mean ± SD; cited from earlier work
[9] = read-out: AC5 Ki, Sf9 membranes, 5 mM MnCl2, 100 μM FS, mean ± SD
[10] = read-out: VC1:IIC2 Mn2+ + FS + Gsα-GTPγS Ki, maximally stimulated: 10 mM MnCl2, 100 μM FS, Gsα-GTPγS, mean ± SD
[11] = read-out: AC1 Ki, Sf9 membranes, 5 mM MnCl2, 100 μM FS, mean ± SD
[12] = read-out: AC2 Ki, Sf9 membranes, 5 mM MnCl2, 100 μM FS, mean ± SD
[13] = read-out: VC1:IIC2 Mn2+ + FS + Gsα-GTPγS Ki, maximally stimulated: 10 mM MnCl2, 100 μM FS, 100 μM ATP, mean ± SD
[14] = VC1:IIC2 Mn2+ + FS + Gsα-GTPγS Ki, maximally stimulated: 10 mM MnCl2, 100 μM FS, 100 μM ATP, mean ± SD
[15] = read-out: Ki for VC1:IIC2, TNP-nucleotides

T2 sequence (P30803 398-765 limits assumed): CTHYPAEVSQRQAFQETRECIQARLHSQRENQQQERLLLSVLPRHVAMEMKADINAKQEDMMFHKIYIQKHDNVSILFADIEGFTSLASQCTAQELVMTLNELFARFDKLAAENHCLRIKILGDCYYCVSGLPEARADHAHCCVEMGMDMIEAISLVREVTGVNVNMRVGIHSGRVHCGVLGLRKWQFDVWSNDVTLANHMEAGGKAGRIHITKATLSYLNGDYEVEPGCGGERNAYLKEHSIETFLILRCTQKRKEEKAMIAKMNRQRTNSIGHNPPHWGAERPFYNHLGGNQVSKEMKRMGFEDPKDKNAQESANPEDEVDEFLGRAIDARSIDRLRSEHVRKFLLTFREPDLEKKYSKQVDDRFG
T2 sequence (P26769 821-1090 limits assumed): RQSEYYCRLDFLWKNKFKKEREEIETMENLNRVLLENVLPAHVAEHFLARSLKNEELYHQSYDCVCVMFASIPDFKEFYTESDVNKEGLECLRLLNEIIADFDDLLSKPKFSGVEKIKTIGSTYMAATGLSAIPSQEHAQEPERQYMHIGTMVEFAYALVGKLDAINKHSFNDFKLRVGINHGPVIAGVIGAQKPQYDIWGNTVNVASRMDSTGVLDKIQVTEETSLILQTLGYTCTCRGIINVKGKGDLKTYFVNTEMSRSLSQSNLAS
T2 sequence (P04896 whole entry partner): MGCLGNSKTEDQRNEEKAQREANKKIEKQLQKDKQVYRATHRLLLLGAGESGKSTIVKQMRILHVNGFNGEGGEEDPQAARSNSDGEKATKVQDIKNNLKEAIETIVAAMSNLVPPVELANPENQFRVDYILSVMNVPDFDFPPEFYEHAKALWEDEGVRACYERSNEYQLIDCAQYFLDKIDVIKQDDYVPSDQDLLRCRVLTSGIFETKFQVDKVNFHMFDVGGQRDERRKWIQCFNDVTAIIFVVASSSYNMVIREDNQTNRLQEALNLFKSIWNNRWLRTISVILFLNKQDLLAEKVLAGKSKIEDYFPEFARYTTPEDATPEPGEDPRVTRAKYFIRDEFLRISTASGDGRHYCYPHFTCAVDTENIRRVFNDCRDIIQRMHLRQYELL
T1 sequence (P30803 whole entry): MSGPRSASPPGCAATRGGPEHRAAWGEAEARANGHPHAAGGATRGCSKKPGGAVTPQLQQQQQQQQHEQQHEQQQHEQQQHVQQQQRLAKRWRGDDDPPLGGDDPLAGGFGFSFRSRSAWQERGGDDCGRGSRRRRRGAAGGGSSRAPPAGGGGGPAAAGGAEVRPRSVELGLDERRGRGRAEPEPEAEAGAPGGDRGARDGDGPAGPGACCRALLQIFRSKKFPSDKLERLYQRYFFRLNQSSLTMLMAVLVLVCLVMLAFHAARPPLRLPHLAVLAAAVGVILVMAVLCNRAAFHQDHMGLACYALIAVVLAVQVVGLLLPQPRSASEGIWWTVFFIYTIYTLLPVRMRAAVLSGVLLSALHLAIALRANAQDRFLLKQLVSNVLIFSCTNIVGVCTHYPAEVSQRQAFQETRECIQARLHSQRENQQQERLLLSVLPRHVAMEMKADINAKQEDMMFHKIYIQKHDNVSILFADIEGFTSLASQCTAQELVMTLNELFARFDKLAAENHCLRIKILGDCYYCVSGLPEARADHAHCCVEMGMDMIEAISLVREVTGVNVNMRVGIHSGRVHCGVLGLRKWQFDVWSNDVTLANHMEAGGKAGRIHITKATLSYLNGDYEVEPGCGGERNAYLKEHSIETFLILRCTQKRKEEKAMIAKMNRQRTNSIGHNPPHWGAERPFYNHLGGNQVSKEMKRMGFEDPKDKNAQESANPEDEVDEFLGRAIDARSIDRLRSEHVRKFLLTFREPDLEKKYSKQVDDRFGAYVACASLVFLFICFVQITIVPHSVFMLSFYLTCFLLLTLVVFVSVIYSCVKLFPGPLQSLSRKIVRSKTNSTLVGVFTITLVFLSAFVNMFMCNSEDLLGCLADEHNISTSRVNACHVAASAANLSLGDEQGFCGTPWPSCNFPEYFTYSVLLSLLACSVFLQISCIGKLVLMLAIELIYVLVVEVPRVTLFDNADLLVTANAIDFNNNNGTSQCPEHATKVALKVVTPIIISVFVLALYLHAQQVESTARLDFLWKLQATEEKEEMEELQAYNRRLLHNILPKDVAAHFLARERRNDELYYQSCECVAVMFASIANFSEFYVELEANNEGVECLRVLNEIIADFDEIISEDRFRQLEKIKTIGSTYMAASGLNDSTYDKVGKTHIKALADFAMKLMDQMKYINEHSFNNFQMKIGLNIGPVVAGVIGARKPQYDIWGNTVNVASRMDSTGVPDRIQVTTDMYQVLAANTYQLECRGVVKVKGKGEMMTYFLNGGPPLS
T3 sequence (P19754 whole entry): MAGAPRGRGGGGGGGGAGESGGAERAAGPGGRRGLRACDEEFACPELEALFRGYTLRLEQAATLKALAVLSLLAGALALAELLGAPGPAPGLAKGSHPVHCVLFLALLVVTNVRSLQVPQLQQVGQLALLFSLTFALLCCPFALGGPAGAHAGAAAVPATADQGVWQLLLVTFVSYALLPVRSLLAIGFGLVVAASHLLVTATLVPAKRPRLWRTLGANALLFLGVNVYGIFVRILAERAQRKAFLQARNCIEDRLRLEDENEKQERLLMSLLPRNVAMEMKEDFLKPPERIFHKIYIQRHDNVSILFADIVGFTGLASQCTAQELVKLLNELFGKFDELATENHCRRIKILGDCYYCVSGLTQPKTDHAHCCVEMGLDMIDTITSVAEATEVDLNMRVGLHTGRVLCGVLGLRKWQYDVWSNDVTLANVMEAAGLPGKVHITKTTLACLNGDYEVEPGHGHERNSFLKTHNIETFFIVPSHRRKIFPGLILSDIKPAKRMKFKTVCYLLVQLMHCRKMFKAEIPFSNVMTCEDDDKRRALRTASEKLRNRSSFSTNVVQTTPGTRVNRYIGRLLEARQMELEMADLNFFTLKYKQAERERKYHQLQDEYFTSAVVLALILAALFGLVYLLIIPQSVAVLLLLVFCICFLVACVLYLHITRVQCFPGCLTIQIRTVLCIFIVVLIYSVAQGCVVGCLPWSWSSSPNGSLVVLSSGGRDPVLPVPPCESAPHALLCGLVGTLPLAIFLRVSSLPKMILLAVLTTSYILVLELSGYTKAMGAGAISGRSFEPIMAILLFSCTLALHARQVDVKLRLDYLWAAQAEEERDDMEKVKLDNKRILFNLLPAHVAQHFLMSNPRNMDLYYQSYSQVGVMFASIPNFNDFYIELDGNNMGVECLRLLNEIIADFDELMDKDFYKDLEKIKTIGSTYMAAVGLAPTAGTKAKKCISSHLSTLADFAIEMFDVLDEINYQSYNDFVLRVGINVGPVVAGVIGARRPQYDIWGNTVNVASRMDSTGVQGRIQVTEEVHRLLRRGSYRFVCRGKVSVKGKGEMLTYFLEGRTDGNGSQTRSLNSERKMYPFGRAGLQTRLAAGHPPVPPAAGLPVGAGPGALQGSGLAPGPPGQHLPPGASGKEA
T4 sequence (P26769 whole entry): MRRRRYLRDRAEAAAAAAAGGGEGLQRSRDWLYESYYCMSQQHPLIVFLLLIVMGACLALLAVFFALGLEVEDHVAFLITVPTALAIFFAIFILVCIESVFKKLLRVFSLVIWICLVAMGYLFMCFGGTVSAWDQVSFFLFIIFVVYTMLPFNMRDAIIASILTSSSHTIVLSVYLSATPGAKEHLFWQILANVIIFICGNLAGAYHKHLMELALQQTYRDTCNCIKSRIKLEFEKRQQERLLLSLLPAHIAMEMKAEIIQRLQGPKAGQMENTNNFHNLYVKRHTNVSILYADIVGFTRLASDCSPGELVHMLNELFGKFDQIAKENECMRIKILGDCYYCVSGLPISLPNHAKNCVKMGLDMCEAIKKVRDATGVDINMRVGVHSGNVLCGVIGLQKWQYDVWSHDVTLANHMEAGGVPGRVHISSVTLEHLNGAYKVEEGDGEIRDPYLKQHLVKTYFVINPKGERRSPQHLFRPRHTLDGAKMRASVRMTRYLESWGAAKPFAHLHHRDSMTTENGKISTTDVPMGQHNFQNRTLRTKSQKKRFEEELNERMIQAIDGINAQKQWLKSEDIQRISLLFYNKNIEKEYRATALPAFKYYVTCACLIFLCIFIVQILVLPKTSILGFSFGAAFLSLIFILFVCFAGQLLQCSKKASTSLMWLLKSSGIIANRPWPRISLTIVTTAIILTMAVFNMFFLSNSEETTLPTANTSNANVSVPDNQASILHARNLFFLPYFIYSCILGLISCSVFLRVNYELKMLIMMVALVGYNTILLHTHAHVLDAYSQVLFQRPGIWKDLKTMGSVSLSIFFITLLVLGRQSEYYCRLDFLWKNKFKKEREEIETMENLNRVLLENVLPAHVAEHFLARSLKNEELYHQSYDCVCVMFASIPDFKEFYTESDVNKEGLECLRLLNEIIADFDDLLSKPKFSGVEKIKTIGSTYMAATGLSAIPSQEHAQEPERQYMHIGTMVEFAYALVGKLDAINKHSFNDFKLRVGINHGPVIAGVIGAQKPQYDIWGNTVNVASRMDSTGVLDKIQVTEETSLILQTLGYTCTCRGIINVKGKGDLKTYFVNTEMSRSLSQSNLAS

2’,3’-O-(N-methylanthraniloyl)-guanosine 5’-triphosphate [compound 1]
Potency difference AC5 versus AC2 (AC5 [1]): > 10 fold
Ki (AC5 [1]; [9]): 53 ± 12 nM
Ki (VC1:IIC2 [2]; [10]): 18 ± 6 nM
Ki (AC1 [3]; [11]): 90 ± 18 nM
Ki (AC2 [4]; [12]): 610 ± 70 nM

2’,3’-O-anthraniloyl-guanosine 5’-triphosphate [compound 13]
Ki (VC1:IIC2 [5]; [13]): 10 ± 1.7 nM

2’,3’-O-(N-methylanthraniloyl)-xanthosine 5’-triphosphate [compound 10]
Ki (AC5 [1]; [9]): 1300 nM
Ki (VC1:IIC2 [2]; [10]): 1200 nM
Ki (AC1 [3]; [11]): 1100 nM
Ki (AC2 [4]; [12]): 3000 nM

2’,3’-O-(N-methylanthraniloyl)-adenosine 5’-triphosphate [compound 5]
Ki (AC1 [6]): 150 ± 40 nM

2’,3’-O-(N-methylanthraniloyl)-guanosine 5’-[γ-thio]triphosphate [compound 4]
Ki (VC1:IIC2 [5]; [13]): 24 ± 4.1 nM
Ki (AC5 [1]; [9]): 34 ± 8 nM
Ki (AC1 [3]; [11]): 63 ± 17 nM
Ki (AC2 [4]; [12]): 370 ± 81 nM

CNc1ccccc1C(=O)O[C@H]1C[C@H](n2cnc3c(N)ncnc32)O[C@@H]1COP(=O)(O)OP(=O)(O)OP(=O)(O)O [compound 6, 2’-deoxy-3’-O-(N-methylanthraniloyl)-adenosine 5’-triphosphate]
Ki (VC1:IIC2 [5]; [14]): 190 ± 3.4 nM
Ki (AC5 [1]): 360 ± 54 nM
Potency difference AC5 versus AC2 (AC5 [1]): > 10 fold
Ki (AC1 [3]): 320 ± 19 nM
Ki (AC2 [4]): 4800 nM

2’,3’-O-(2,4,6-trinitrophenyl)-UTP [reference compound]
Ki (ACs 1, 2 and 5): 10 to 100 nM
Ki (VC1:IIC2 [2]; [15]): 100 to 300 nM

CNc1ccccc1C(=O)O[C@H]1C[C@H](n2cnc3c(=O)[nH]c(N)nc32)O[C@@H]1COP(=O)(O)OP(=O)(O)OP(=O)(O)O [compound 2, 2’-deoxy-3’-O-(N-methylanthraniloyl)-guanosine 5’-triphosphate]
Ki (AC5 [1]): 410 ± 35 nM
Ki (AC1 [3]): 270 ± 30 nM
Ki (AC2 [4]): 1300 ± 210 nM

CNc1ccccc1C(=O)O[C@@H]1C[C@@H](COP(=O)(O)OP(=O)(O)OP(=O)(O)O)O[C@H]1n1cnc2c(=O)[nH]c(N)nc21 [compound 3, 3’-deoxy-2’-O-(N-methylanthraniloyl)-guanosine 5’-triphosphate]
Ki (VC1:IIC2 [5]; [14]): 350 ± 43 nM
Ki (AC5 [1]): 1800 nM
Ki (AC1 [3]): 1800 nM
Ki (AC2 [4]): 8700 nM

2’,3’-O-anthraniloyl-adenosine 5’-diphosphate [compound 15]
Ki (AC1 [3]; [11]): 860 ± 10 nM
Ki (AC2 [4]; [12]): 2900 nM

2’,3’-O-anthraniloyl-adenosine 5’-triphosphate [compound 14]
Ki (AC1 [3]; [11]): 130 ± 20 nM
Ki (AC2 [4]; [12]): 640 ± 70 nM

CNc1ccccc1C(=O)O[C@@H]1C[C@@H](COP(=O)(O)OP(=O)(O)OP(=O)(O)O)O[C@H]1n1cnc2c(N)ncnc21 [compound 7, 3’-deoxy-2’-O-(N-methylanthraniloyl)-adenosine 5’-triphosphate]
Ki (VC1:IIC2 [5]; [14]): 90 ± 2.2 nM
Ki (AC5 [1]): 65 ± 5 nM
Ki (AC1 [3]): 470 ± 20 nM
Ki (AC2 [4]): 540 ± 20 nM

2’,3’-O-(2,4,6-trinitrophenyl)-CTP [reference compound]
Ki (ACs 1, 2 and 5): 10 to 100 nM
Ki (VC1:IIC2 [2]; [15]): 100 to 300 nM

2’(3’)-O-(N-methylanthraniloyl)-cytidine 5’-triphosphate [compound 12]
Ki (VC1:IIC2 [5]; [13]): 9.2 ± 1.5 nM
Ki (AC1 [6]): 150 ± 30 nM
Ki (AC5 [7]): 150 ± 30 nM
Ki (AC2 [8]): 690 ± 20 nM

2’,3’-O-(N-methylanthraniloyl)-uridine 5’-triphosphate [compound 11]
Ki (VC1:IIC2 [5]; [13]): 6.1 ± 1.3 nM
Potency difference AC5 versus AC2 (AC5 [1]): > 10 fold
Ki (AC5 [1]; [9]): 32 ± 2 nM
Ki (AC1 [3]; [11]): 46 ± 4 nM
Ki (AC2 [4]; [12]): 460 ± 60 nM
